From patent publication US11104689B2, “Influenza virus replication inhibitor and use thereof” (SUNSHINE LAKE PHARMA CO., LTD., priority 2017, dated 2021) come the findings set out here.

A short description of data set [1]: Cytotoxicity test group of the CPE assay (no virus added, CCK-8 kit). It counts as cell-based. Conditions: dog, MDCK cells. As to the method:
Experimental Procedures: MDCK cells were seeded in a 384-well plate with 2000 cells per wells, which were incubated overnight at 37° C., 5% CO2; The culture medium was changed to the fresh culture solution containing different concentrations of the compound and virus H1N1 A/Weiss/43 at a multiplicity of infection to yield 80-95% CPE on the second day. The test compound was serially diluted from the highest concentration of 100 nM in 1:3 dilutions to give 8 concentrations: 100 nM, 33.33 nM, 11.11 nM, 3.70 nM, 1.23 nM, 0.41 nM, 0.14 nM, 0.05 nM. At the same time, a non-medicated virus control group and a non-medicated cell control group free of virus were set up. No virus was added in the cytotoxicity test group but medium was added for replacement. Each group was set in duplicate, and incubated at 37° C. in 5% CO2. The cell activity was measured according to the CCK-8 kit (source: Shanghai Liji Biotechnology Co., Ltd. #D3100L4057) and the data would be used to calculate the antiviral and cytotoxicity of the compound. Data were analyzed by GraphPad Prism, CPE inhibition rate was calculated, and the EC50 was obtained according to the fitted curve. CPE inhibition rate=(absorbance of dosing hole-absorbance of virus control well)/(absorbance of cell control well-virus control well)×100%

Data set [2] has as its system influenza virus (A/Weiss/43(H1N1)). Description: Cytopathic effect assay (CPE assay), antiviral activity. It counts as cell-based. Conditions: MDCK cells, CPE inhibition, CCK-8, read-out: EC50 against influenza virus (A/Weiss/43(H1N1)) in vitro. On the technique in general: Protection from cytopathic effect is a common read-out in antiviral testing.
On the set-up of data set [3]: species or system Beagle dogs. Particulars: male, beagle, dog, in vivo. As for the experimental part:
Pharmacokinetic studies of compounds of the invention in healthy adult male SD rats, dogs or monkeys were evaluated. The compound of the present invention was administered in form of a solution containing 10% DMSO+10% Kolliphor HS 15+80% physiological saline solution. For intravenous (iv) administration, animals were given with a dose of 0.2 or 1 mg/kg and blood was taken at 0.083, 0.25, 0.5, 1.0, 2.0, 5.0, 7.0, and 24 hours (0.3 mL) and centrifugated for 10 minutes at 3,000 or 4,000 rpm. For oral (po) administration, animals were given with a dose of 1 or 5 mg/kg, taken at 0.25, 0.5, 1.0, 2.0, 5.0, 7.0, and 24 hours (0.3 mL) and centrifugated at 3,000 or 4,000 rpm for 10 minutes. The plasma solution was collected and stored at −20° C. or −70° C. until the LC/MS/MS analysis was performed.

Where two headings read alike, the source gives them in different places. Bounds are passed on as bounds.

The term CC50 denotes the concentration giving 50% cytotoxicity. High values mean lower toxicity to the cells, low ones greater toxicity to the cells. For `O=C1c2c(O)c(=O)ccn2N([C@H]2c3ccc(F)cc3-c3ccsc3-c3ccccc32)[C@@H]2COCCN12` (mixture of isomers) [Example 37, The mixture of (R)-12-((S)-5-fluoro-8H-dibenzo[3,4:6,7]cyclohepta[1,2-b]thiophen-8-yl)-7-hydroxy-3,4,12,12a-tetrahydro-1H-[1,4]oxazino[3,4-c]pyrido[2,1-f][1,2,4]triazine-6,8-dione and (S)-12-((R)-5-fluoro-8H-dibenzo [3,4:6,7]cyclohepta[1,2-b]thiophen-8-yl)-7-hydroxy-3,4,12,12a-tetrahydro-1H-[1,4]oxazino [3,4-c]pyrido [2,1-f][1,2,4]triazine-6,8-dione], it took 104000 nM to reach half-maximal cytotoxicity in data set [1] (CC50). Further, the EC50 in data set [2] (H1N1) turned out to be 14.9 nM.
On to `O=C1c2c(O)c(=O)ccn2N([C@H]2c3ccccc3-c3ccsc3-c3ccccc32)[C@@H]2COCCN12` (racemic) [Example 2, (R)-12-((S)-8H-dibenzo [3,4:6,7]cycloheptyl [1,2-b]thiophen-8-yl)-7-hydroxy-3,4,12,12a-tetrahydro-1H-[1,4] oxazino[3,4-c] pyrido [2,1-f] [1,2,4] triazine-6,8-dione and (S)-12-((R)-8H-dibenzo [3,4:6,7]cycloheptyl [1,2-b]thiophen-8-yl)-7-hydroxy-3,4,12,12a-tetrahydro-1H-[1,4] oxazino[3,4-c] pyrido [2,1-f][1,2,4] triazine-6,8-dione], for which the CC50 in data set [1] is over 100000 nM. Besides, the EC50 in data set [2] (H1N1) is 22.8 nM.
`O=C1c2c(O)c(=O)ccn2N([C@H]2c3ccccc3-c3ccsc3-c3ccccc32)[C@H]2COCCN12` (racemic) [Example 3, (S)-12-((S)-8H-dibenzo [3,4:6,7]cycloheptyl [1,2-b]thiophen-8-yl)-7-hydroxy-3,4,12,12a-tetrahydro-1H-[1,4] oxazino [3,4-c] pyrido [2,1-f] [1,2,4] triazine-6,8-dione and (R)-12-((R)-8H-dibenzo [3,4:6,7]cycloheptyl [1,2-b]thiophen-8-yl)-7-hydroxy-3,4,12,12a-tetrahydro-1H-[1,4] oxazino [3,4-c] pyrido [2,1-f][1,2,4] triazine-6,8-dione] had a CC50 in data set [1] of over 100000 nM. Besides, in data set [2] (H1N1), the EC50 is 23.5 nM.
Regarding `O=C1c2c(O)c(=O)ccn2N([C@H]2c3ccc(F)c(F)c3CSc3c2ccc2ccccc32)[C@@H]2COCCN12` (racemic) [Example 7, (R)-12-((S)-10,11-difluoro-7,12-dihydrobenzo [e]naphtho [1,2-b]thiepin-7-yl)-7-hydroxy-3,4,12,12a-tetrahydro-11H-[1,4] oxazino [3,4-c] pyrido [2,1-f] [1,2,4] triazine-6,8-dione and (S)-12-((R)-10,11-difluoro-7,12-dihydrobenzo[e]naphtho[1,2-b]thiepin-7-yl)-7-hydroxy-3,4,12,12a-tetrahydro-1H-[1,4]oxazino[3,4-c]pyrido[2,1-f][1,2,4]triazine-6,8-dione], the CC50 in data set [1] was over 100000 nM.
Turning to `COc1cccc2c1-c1ccsc1-c1ccccc1C2N1[C@@H]2COCCN2C(=O)c2c(O)c(=O)ccn21` (stereo in doubt) [Example 19, (12aR)-7-hydroxy-12-((8R)-4-methoxy-8H-dibenzo [3,4:6,7]cyclohept[1,2-b]thiophen-8-yl)-3,4,12,12a-tetrahydro-1H-[1,4]oxazino[3,4-c]pyrido[2,1-f] [1,2,4]triazine-6,8-dione], in data set [1], the CC50 was over 100000 nM. Further, the EC50 in data set [2] (H1N1) turned out to be 34.1 nM.
For `O=C1c2c(O)c(=O)ccn2N([C@H]2c3ccc(F)cc3-c3ccsc3-c3cc(F)ccc32)[C@@H]2COCCN12` [Compound (17-1), (R)-12-((S)-5,11-difluoro-8H-dibenzo[3,4:6,7]cyclohepta[1,2-b]thiophen-8-yl)-7-hydroxy-3,4,12,12a-tetrahydro-1H-[1,4]oxazino[3,4-c]pyrido[2,1-f][1,2,4]triazine-6,8-dione], in that order: 77500 nM and 18.8 nM.
Regarding `O=C1c2c(O)c(=O)ccn2N([C@H]2c3ccc(F)cc3-c3ccsc3-c3ccccc32)[C@@H]2COCCN12` [Compound (20-1), (R)-12-((S)-5-fluoro-8H-dibenzo [3,4:6,7]cyclohept[1,2-b]thiophen-8-yl)-7-hydroxy-3,4,12,12a-tetrahydro-1H-[1,4]oxazino[3,4-c]pyrido[2,1-f][1,2,4]triazine-6,8-diketone], in data set [2], the EC50 came to 4.9 nM.
In the case of `O=C1c2c(O)c(=O)ccn2N([C@@H]2c3ccccc3-c3sccc3-c3c(F)cccc32)[C@@H]2COCCN12` [Compound (21-2), (12aR)-12-((8S)-4-fluoro-8H-dibenzo [3,4:6,7]cyclohept[1,2-b]thiophen-8-yl)-7-hydroxy-3,4,12,12a-tetrahydro-1H-[1,4]oxazino[3,4-c]pyrido[2,1-f] [1,2,4]triazine-6,8-dione], the EC50 in data set [2] (H1N1) came out at 18.9 nM.
The molecule `O=C1c2c(O)c(=O)ccn2N(C2c3ccccc3SCc3c2ccc2ccccc32)C2COCCN12` (centres unmarked) [Example 5, 12-(7,13-Dihydrobenzo [b]naphtho [2,1-e]thiepin-7-yl)-7-hydroxy-3,4,12,12a-tetrahydro-1H-[1,4] oxazino [3,4-c] pyrido [2,1-f] [1,2,4]triazine-6,8-dione] showed a cytotoxic concentration (CC50) in data set [1] of over 100000 nM.
With `O=C1c2c(O)c(=O)ccn2N(C2c3ccccc3-c3ccsc3-c3c2ccc(F)c3F)C2COCCN12` (centres unmarked) [Example 11, 12-(11,12-Difluoro-8H-dibenzo [3,4:6,7]cycloheptyl [1,2-b]thiophen-8-yl)-7-Hydroxy-3,4,12, 12a-tetrahydro-1H-[1,4]oxazino[3,4-c]pyrido[2,1-f][1,2,4]triazine-6,8-dione], the EC50 in data set [2] (H1N1) was 48.7 nM.
The molecule `O=C1c2c(O)c(=O)ccn2N(C2c3ccccc3-c3cc(Cl)sc3-c3ccccc32)[C@@H]2COCCN12` (stereo partly drawn) [Example 15, (12aR)-12-(2-chloro-8H-dibenzo [3,4:6,7]cyclohept[1,2-b]thiophen-8-yl)-7-hydroxy-3,4,12,12a-tetrahydro-1H-[1,4] oxazino [3,4-c] pyrido [2,1-f] [1,2,4]triazine-6,8-dione] yielded a half-maximal cytotoxic concentration (CC50) in data set [1] of 39400 nM.
The Cmax is the highest concentration seen after dosing. In general, clearance refers to a measure of how efficiently the substance is removed, as volume per time. Lower therefore signals a low capacity for elimination. Regarding `COC(=O)OCOc1c2n(ccc1=O)N([C@H]1c3ccc(F)cc3-c3ccsc3-c3ccccc31)[C@@H]1COCCN1C2=O` [Example 28, methyl (((R)-12-((S)-5-fluoro-8H-dibenzo [3,4:6,7]cyclohept[1,2-b]thiophen-8-yl)-6,8-dioxo 3,4,6,8,12,12a-hexahydro-1H-[1,4]oxazino [3,4-c]pyrido [2,1-f] [1,2, 4]triazin-7-yl)oxy)methyl carbonate], the Conversion in animals entry in data set [3] is recorded as “converted to the compound of Example 21 (21-1) in animals”. In data set [3] (iv, 0.2 mg/kg), this molecule showed an AUCINF of 1030 ng·h/mL, an AUClast of 996 ng·h/mL, a maximum concentration (Cmax) of 144 ng/mL and a clearance of 3.22 mL/min/kg. The molecule further came in with a t1/2 in data set [3] (iv, 0.2 mg/kg) of 4.91 h. For the same molecule, in data set [3] (po, 1 mg/kg), the AUCINF worked out at 2580 ng·h/mL, the AUClast is 2430 ng·h/mL, the maximum concentration (Cmax) is on record as 311 ng/mL and the F came to 57.6%. For the same molecule, in data set [3] (po, 1 mg/kg), the t1/2 was 5.72 h.
`O=C1c2c(O)c(=O)ccn2N([C@H]2c3ccccc3-c3cnoc3-c3ccccc32)[C@@H]2COCCN12` [Example 38, 12-(8H-Dibenzo [3,4:6,7]cyclohepta[1,2-d]isoxazol-8-yl)-7-hydroxy-3,4,12,12a-tetrahydro-1H-[1,4]oxazino[3,4-c]pyrido[2,1-f] [1,2,4]triazin-6,8-dione] had a CC50 in data set [1] of over 100000 nM. The EC50 in data set [2] (H1N1) turned out to be 38 nM.
